Legend:
[1] = Solubility comparison: cloud point on adding water to a DMSO solution; type: physicochemical; details: upon dissolution in DMSO
[2] = UV-Vis absorption spectrum; type: physicochemical; details: compared to compounds 1 and 2; FIG. 5

| melting point | water added at which a cloud point formed [1] [%] | absorbance at 355 nm [2] | SMILES |
| --- | --- | --- | --- |
| 76 to 81 °C (dec.) |  |  | CCCCn1c2c(c3ccccc31)C(SCCC(=O)ON1C(=O)CCC1=O)Sc1ccccc1-2 (stereo not drawn) [3d, 2,5-Dioxopyrrolidin-1-yl 3-((11-butyl-6, 11-dihydrothiochromeno[4,3-b]indol-6-yl)thio)propanoate] |
| 77 to 82 °C (dec.) |  |  | CCCn1c2c(c3ccccc31)C(SCCC(=O)ON1C(=O)CCC1=O)Sc1ccccc1-2 (stereo not drawn) [3c, 2,5-Dioxopyrrolidin-1-yl 3-((11-propyl-6,11-dihydrothiochromeno[4,3-b]indol-6-yl)thio)propanoate] |
| 90 to 96 °C (dec.) | 30 | high absorbance | Cn1c2c(c3ccccc31)C(SCCC(=O)ON1C(=O)CCC1=O)Sc1ccccc1-2 (stereo not drawn) [3a, 2,5-Dioxopyrrolidin-1-yl 3-((11-methyl-6,11-dihydrothiochromeno[4,3-b]indol-6-yl)thio)propanoate] |
| 82 to 87 °C (dec.) |  |  | CCn1c2c(c3ccccc31)C(SCCC(=O)ON1C(=O)CCC1=O)Sc1ccccc1-2 (stereo not drawn) [3b, 2,5-Dioxopyrrolidin-1-yl 3-((11-ethyl-6,11-dihydrothiochromeno[4,3-b]indol-6-yl)thio)propanoate] |
